Laboratory results reported in patent US20070128589A1, “Substrates, sensors, and methods for assessing conditions in females” (priority 2005, published 2007).
Entries after “also recorded” stand apart in the source; their conditions may differ. No end group written: not given here.

Columns and labels:
[1] = test system: Staphylococcus aureus, Streptococcus pyogenes, Escherichia coli (E. coli), Pseudomonas aeruginosa, and Enterococcus faecalis; assay: HRP release from GV2-HRP beads, specificity against other common pathogens; format: biochemical; conditions: five minutes, FIG. 11
Protocol: (§1) Various bacteria were cultured overnight at 37° C. in NYC III media with 5% CO2. A 10% slurry of Affigel-GV2-HRP in PBS was prepared, and 20 μl was added to six wells of a 96-well filter plate (Millipore Multi-screen HTS). Aliquots of the bacteria, including Gardnerella vaginalis, Pseudomonas aeruginosa, E. coli, Streptococcus pyogenes, Enterococcus faecalis, and Staphylococcus aureus, were added (100 μl) to the beads, and the plate was allowed to sit for 5 minutes at ambient temperature. The supernatants were centrifuged into a low-binding assay plate (Coming 3641), and assays for HRP were then run. 2,2′-azino-bis(3-ethylbenzthiazoline-6-sulfonic acid) (ABTS, US Biological) is a commonly used substrate for HRP, giving a water-soluble blue-green color in the presence of HRP and hydrogen peroxide. […]
(§2) FIG. 11 illustrates the specificity of the GV2 (PFINETYAKFC) (SEQ ID NO: 1) peptide for Gardnerella vaginalis over the course of five minutes when incubated with Gardnerella vaginalis, Staphylococcus aureus, Streptococcus pyogenes, Escherichia coli (E. coli), Pseudomonas aeruginosa, and Enterococcus faecalis. The extracts were filtered through microtiter plate filters and the HRP release was measured at 405 nm with ABTS substrate in the presence of hydrogen peroxide (H202).

[2] = test system: Gardnerella vaginalis; assay: HRP release from Affigel-GV2-HRP beads, ABTS/H2O2 read at 405 nm; format: biochemical; conditions: peptide conjugated to HRP on Affigel beads, 5 minutes
Protocol: as §1, with “run.” for “run. 2,2′-azino-bis(3-ethylbenzthiazoline-6-sulfonic acid) (ABTS, US Biological) is a commonly used substrate for HRP, giving a water-soluble blue-green color in the presence of HRP and hydrogen peroxide.”
Gardnerella vaginalis was detected with the peptide PFINETYAKFC (SEQ ID NO: 1) which was conjugated to HRP. […] Alternatively, the color change can be measured on a plate reader at 405 nm.
as §2

[3] = test system: E. coli; assay: as above; format: biochemical, Escherichia coli; conditions: 5 minutes at ambient temperature
Protocol: Various bacteria were cultured overnight at 37° C. in NYC III media with 5% CO2. A 10% slurry of Affigel-GV2-HRP in PBS was prepared, and 20 μl was added to six wells of a 96-well filter plate (Millipore Multi-screen HTS). Aliquots of the bacteria, including Gardnerella vaginalis, Pseudomonas aeruginosa, E. coli, Streptococcus pyogenes, Enterococcus faecalis, and Staphylococcus aureus, were added (100 μl) to the beads, and the plate was allowed to sit for 5 minutes at ambient temperature. The supernatants were centrifuged into a low-binding assay plate (Coming 3641), and assays for HRP were then run. 2,2′-azino-bis(3-ethylbenzthiazoline-6-sulfonic acid) (ABTS, US Biological) is a commonly used substrate for HRP, giving a water-soluble blue-green color in the presence of HRP and hydrogen peroxide. The formation of the bluegreen color can be followed at 405 nm, with higher slopes indicating the presence of higher amounts of HRP.

[4] = test system: C. albicans; assay: Identification of peptide targets for C. albicans; format: biochemical, Candida albicans
Protocol: Clones of green fluorescent protein (GFP) tagged conjugates were used to identify targets in a high throughput screen. Each clone contained a plasmid harboring a gene that contains a polyhistidine tag (6 his), 30 random nucleotides (corresponding to 10 random amino acids), and green fluorescent protein (GFP). On the day before a screen, 864 glowing clones are grown up overnight at 37° C. in deep well microtiter plates (1 ml/well). In the morning, the cultures can be induced with 1 mM IPTG for 1 hour, the cells can be centrifuged for five minutes, and then the media can be decanted. Lysozyme (2 mg/ml) can be added and the cells can be flash frozen 3 times. The samples can be treated with 100 ul/well of DNAse I at 37° C. for 30 minutes to reduce the viscosity by digesting the DNA. An aliquot of the sample can then be transferred to a microtiter filter plate containing 10 μl of nickel-NTA resin. The pipeting of the reagents (IPTG, lysozyme, DNAse I, and beads) can be performed with a Tecan Genesis RSP 100 Robot with Gemini version 4.0 software.
(§3) The plates can be filtered by centrifugation three times with PBS to remove unbound material and then the GFP-peptide-bound bead can be incubated with microbial extract for 20 min at 37° C. The sample can be filtered and the flow through fluorescence can be compared with the background from the prior wash. If the microbe has a protease that finds the ideal target, then the release of GFP fluorescence from the bead can be over 100 times greater than the background.
(SEQ ID NO: 8), the sequence QKTTIKKLKH (H2) (SEQ ID NO: 9), the sequence KPKAFLKVGN (R8) (SEQ ID NO: 6), the sequence TPIQIHTILH (SEQ ID NO: 10), the sequence […] (SEQ ID NO: 11), the sequence […] (SEQ ID NO: 12), and the sequence […] (SEQ ID NO: 13).

[5] = test system: C. albicans; assay: G11 peptide detection of C. albicans grown in artificial vaginal fluid; format: biochemical, Candida albicans; conditions: FIG. 23
[6] = test system: Gardnerella vaginalis; assay: GFP-random amino acid sequence-polyhistidine peptide library screen with Gardnerella extracts; format: biochemical; conditions: plate 76, FIG. 10
Protocol: (§4) The samples were then incubated with beads that bind the epitope tag (e.g., 10 μl of NTA-resin to bind a polyhistidine tag or 10 μl of methotrexate agarose to bind the FolA tag). The sample was then placed into a microtiter filtration plate and washed three times to remove the unbound proteins. The fluorescent signal of the third wash was measured in a fluorescent microplate reader at an excitation of 355 nm and an emission of 510 nm (for GFP). Alternatively, the HRP activity can be measured in a microplate colorimeter at 405 nm with H2O2 and ABTS substrate. This background reading from the third rinse can later be subtracted from the signal of the released GFP (or HRP) peptides by extracellular bacterial proteases. […]
as §3
(§5) Fluorescence can be measured on a Fluoroskan II instrument with an excitation filter centered at 380 nm and emission filter centered at 538 nm. […]

[7] = test system: unidentified protease from Lactobacillus acidophilus; assay: Peptide-HRP Affigel bead detection of Lactobacillus protease; format: biochemical; conditions: FIG. 12
Protocol: The two putative peptides were synthesized, coupled to Affigel beads (Bio-Rad, Hercules Calif.), and then labeled with horseradish peroxidase in the following manner:
Peptides were coupled to Affigel beads as described by the manufacturer. Similar results were obtained using small latex beads with carboxylic acid groups. Briefly, 1 mg of peptide was incubated with 1 ml of affigel in conjugation buffer (phosphate buffered saline) for 1-2 hours at room temperature. For the small latex beads functionalized with carboxylic acids, the peptides/proteins are coupled with EDC (1-ethyl-3-[3 dimethylaminopropyl] carbodiimide hydrochloride). The beads are either used immediately or conjugated further with HRP-maleimide or stored at 4° C. under a cushion of 2% trehalose or 2% sucrose.
HRP is conjugated to sulfo-SMCC though a reactive primary amine group. The reaction is performed for 1 hour in the presence of 50 mM sodium phosphate buffer (pH 7.4). The functionalized HRP is removed from the unbound sulfo-SMCC by gel filtration using P6 Biogel P polyacrylamide beads, Biorad (Hercules, Calif.) or Sephadex G50 beads (Amersham Biosciences, Piscataway, N.J.). The HRP-maleimide elutes in the void volume, whereas the free sulfo-SMCC elutes very slowly from the column. The HRP binds hemin, and, thus, has a brown color that can be used to quickly identify the void volume containing the HRP-maleimide. […]

[8] = test system: Lactobacillus sp. protease; assay: GFP-random amino acid sequence-polyhistidine peptide library screen, GFP-peptide released from beads by Lactobacillus supernatant; format: biochemical, Lactobacillus acidophilus; conditions: plate number 69, exposed to Lactobacillus, FIG. 9
Protocol: as §4, §3, §5

Substance: PFINETYAKFC (also: Affigel bead and HRP conjugate) [GV2]
- color change (HRP release, ABTS, 405 nm) with other common pathogens [1]: not in the presence of other common pathogens
- HRP release / color change with H2O2 and ABTS substrate [2]: quite specific for G. vaginalis; also recorded: turns blue; also recorded: detects unidentified protease from G. vaginalis
- HRP release / color change with H2O2 and ABTS substrate ([2]; listed as PFINETYAKFC): color change was observed quickly
- HRP release signal (ABTS, 405 nm) [3]: small amount of signal

Substance: TPIQIHTILH (Peptide Substrate of Candida spp.) [G11]
- identified as peptide target for C. albicans [4]: peptide targets for C. albicans
- ability to detect C. albicans [5]: able to detect C. albicans; also recorded: able to detect Candida albicans

Substance: 76/C3 (ITTTSSKHEHC; Peptide Substrate of Lactobacillus acidophilus)
- fluorescence after exposure to Gardnerella extracts [6]: strong fluorescence

Substance: ITTTSSKHEHC (Peptide Substrate of Lactobacillus acidophilus) [peptide substrate detecting a protease from Lactobacillus]
- detection of protease from Lactobacillus [7]: detects an unknown protease; also recorded: detects an unidentified protease

Substance: 69/B8 (PFINETYAKFC; Peptide Substrate of Gardnerella vaginalis)
- signal strength (GFP-peptide released from the beads) [8]: 62.8
